From patent US9492437B2, “Otamixaban for treatment of elderly and renal impaired non-ST elevation myocardial infarction patients” (SANOFI, priority 2009, dated 2016)
Where two headings read alike, the source gives them in different places.

Tests used:
thrombosis [1] = conditions: rodent; cited from earlier work
thrombosis [2] = conditions: canine; cited from earlier work
acute coronary syndrome = conditions: cited from earlier work
free factor Xa = free factor Xa (Homo sapiens, UniProt P00742); conditions: cited from earlier work
Chain of free factor Xa (P00742 235-488 limits assumed): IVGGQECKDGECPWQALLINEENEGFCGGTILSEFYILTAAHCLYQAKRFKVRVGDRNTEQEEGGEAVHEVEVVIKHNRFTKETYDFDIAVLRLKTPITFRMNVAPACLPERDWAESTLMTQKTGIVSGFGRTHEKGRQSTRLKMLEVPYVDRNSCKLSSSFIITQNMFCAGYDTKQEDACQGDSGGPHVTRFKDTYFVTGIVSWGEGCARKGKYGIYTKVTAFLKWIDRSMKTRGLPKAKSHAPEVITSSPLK
Chain of free factor Xa (P00742 41-179 limits assumed): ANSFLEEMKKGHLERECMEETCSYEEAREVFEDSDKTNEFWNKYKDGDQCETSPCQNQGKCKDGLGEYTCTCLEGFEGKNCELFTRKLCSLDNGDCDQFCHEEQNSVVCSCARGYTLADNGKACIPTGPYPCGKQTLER

[3] = subgroup pharmacokinetic analysis (concentration of otamixaban); assay type: in vivo, human; conditions: dose 4 (0.140 mg/Kg/h)
[4] = test system: patients with Unstable angina/Non ST segment Elevation Myocardial infarction; conditions: in vivo
Method: The following results are based on a randomized, double-blind triple-dummy trial to compare otamixaban to Unfractionated Heparin+eptifibatide, in patients with Unstable angina/Non ST segment Elevation Myocardial infarction scheduled to undergo an early invasive strategy.
Otamixaban arm: (Bol) 0.080 mg/Kg (I) 0.035 mg/Kg/h or 0.070 mg/Kg/h or 0.105 mg/Kg/h or 0.175 mg/Kg/h
UFH: 60 IU/Kg as IV bolus ([…]) followed by an IV infusion of 12 U/Kg/h (max 1000 IU/h) to maintain a PTT at 1.5 to 2.0 times control and at the time of the PCI additional boluses needed if the ACT is not in the range of 200-250 seconds. NB: In order for the study to be blinded, all aPTTs and ACTs performed in order to adjust Drug B (UFH/placebo) dosing will be performed using an encrypted Hemochron Signature Elite machine (or as a back-up, a local device with a third-party unblinded healthcare professional).
Eptifibatide: a single bolus of 180 mcg/kg followed by an infusion of 2 mcg/kg/min. In patients with CrCl<50 mL/min the infusion rate will be decreased to 1 mcg/kg/min.
Safety: • Non-CABG TIMI significant (Major+Minor) bleeding adjudicated by a blinded Clinical Events Adjudication Committee (CEAC) at Day 7. • Non-CABG TIMI Major bleeding adjudicated by a blinded Clinical Events Adjudication Committee (CEAC) at Day 7. • CABG-related bleeding adjudicated by a blinded Clinical Events Adjudication Committee (CEAC) at Day 7. • TIMI Major Bleeding (Non CABG+CABG) adjudicated by a blinded Clinical Events Adjudication Committee (CEAC) at Day 7. • Adjudicated TIMI Minor bleedings at Day 7 • Adjudicated Thrombotic and non-thrombotic procedural complications during the index PCI (including abrupt or threatened closure, new intracoronary thrombus, side branch closure, distal embolization, noreflow, thrombus in catheter or adherent to guidewire, coronary dissection with decreased flow, difficulty in reaching or crossing lesion, unplanned stent use, suboptimal results, coronary perforation, tamponade). All the above events will be adjudicated by a blinded Independent Adjudication Committee.

thrombosis [5] = conditions: porcine; cited from earlier work
[6] = test system: prothrombin fragments 1+2; conditions: highest dose regimen; cited from earlier work
factor Xa = target: T1, factor Xa (Homo sapiens, UniProt P00742); conditions: patients with stable coronary artery disease taking usual comedication, some with mild renal impairment; cited from earlier work
T1 construct: host or cells: patients (endogenous enzyme)
T1 sequence (P00742 235-488 limits assumed): as the sequence (P00742 235-488 limits assumed) above
T1 sequence (P00742 41-179 partner limits assumed): as the sequence (P00742 41-179 limits assumed) above

[7] = target: factor Xa assembled in the prothrombinase complex (Factor Xa, Factor Va, calcium and phospholipid) (Homo sapiens, UniProt P00742); conditions: cited from earlier work
Chain of factor Xa assembled in the prothrombinase complex (Factor Xa, Factor Va, calcium and phospholipid) (P00742 235-488 limits assumed): as the sequence (P00742 235-488 limits assumed) above
Chain of factor Xa assembled in the prothrombinase complex (Factor Xa, Factor Va, calcium and phospholipid) (P00742 41-179 limits assumed): as the sequence (P00742 41-179 limits assumed) above
Chain of factor Xa assembled in the prothrombinase complex (Factor Xa, Factor Va, calcium and phospholipid) (P12259 29-737 partner limits assumed): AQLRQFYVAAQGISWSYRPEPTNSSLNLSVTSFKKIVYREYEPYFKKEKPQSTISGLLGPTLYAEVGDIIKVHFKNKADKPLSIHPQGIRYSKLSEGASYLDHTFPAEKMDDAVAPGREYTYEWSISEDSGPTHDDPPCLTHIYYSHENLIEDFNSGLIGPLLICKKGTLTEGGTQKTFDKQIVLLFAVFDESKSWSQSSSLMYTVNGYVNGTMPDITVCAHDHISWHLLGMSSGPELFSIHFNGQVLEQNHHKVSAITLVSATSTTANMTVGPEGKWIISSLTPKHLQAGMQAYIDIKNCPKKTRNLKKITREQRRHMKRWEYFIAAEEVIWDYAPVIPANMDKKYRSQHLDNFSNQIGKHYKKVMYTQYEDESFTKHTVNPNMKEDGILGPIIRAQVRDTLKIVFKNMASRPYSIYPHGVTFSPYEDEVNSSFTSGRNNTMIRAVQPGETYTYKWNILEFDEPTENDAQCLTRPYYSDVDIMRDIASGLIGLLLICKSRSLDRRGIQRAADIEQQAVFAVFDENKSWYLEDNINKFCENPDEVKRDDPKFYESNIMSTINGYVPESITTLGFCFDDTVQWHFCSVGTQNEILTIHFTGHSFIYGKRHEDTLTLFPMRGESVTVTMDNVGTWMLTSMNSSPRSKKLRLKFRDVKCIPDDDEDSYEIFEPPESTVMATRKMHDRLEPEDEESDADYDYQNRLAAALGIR
Chain of factor Xa assembled in the prothrombinase complex (Factor Xa, Factor Va, calcium and phospholipid) (P12259 1574-2224 partner limits assumed): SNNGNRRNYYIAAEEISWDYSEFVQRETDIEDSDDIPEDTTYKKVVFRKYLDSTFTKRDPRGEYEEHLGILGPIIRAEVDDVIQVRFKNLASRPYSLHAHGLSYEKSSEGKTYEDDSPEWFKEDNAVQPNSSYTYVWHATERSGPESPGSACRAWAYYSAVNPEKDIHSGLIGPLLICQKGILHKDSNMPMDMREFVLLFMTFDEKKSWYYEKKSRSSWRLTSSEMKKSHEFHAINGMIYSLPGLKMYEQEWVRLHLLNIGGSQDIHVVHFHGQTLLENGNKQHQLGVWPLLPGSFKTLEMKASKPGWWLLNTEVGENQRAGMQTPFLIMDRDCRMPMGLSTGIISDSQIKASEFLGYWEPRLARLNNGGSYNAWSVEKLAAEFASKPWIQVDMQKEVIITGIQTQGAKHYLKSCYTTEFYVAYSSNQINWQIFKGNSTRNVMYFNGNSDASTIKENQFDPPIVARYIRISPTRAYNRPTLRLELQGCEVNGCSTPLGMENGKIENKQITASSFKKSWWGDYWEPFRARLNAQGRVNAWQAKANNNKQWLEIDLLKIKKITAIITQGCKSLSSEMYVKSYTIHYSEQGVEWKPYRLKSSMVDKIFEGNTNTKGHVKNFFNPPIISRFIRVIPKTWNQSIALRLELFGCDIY

concentration of otamixaban in patients with renal impairment and in elderly patients [3]: higher concentration | rates of TIMI major as compared to UFH+eptifibatide ([4]; 0.105 mg/kg): numerically higher | rates of TIMI minimal as compared to UFH+eptifibatide ([4]; 0.105 mg/kg): numerically higher | rates of TIMI minor (for patients without TIMI major) as compared to UFH+eptifibatide ([4]; 0.105 mg/kg): lower | TIMI significant bleeding ([4]; 0.175 mg/kg): excessive
Compound: COC(=O)C(Cc1cccc(C(=N)N)c1)[C@@H](C)NC(=O)c1ccc(-c2cc[n+]([O-])cc2)cc1 (mixture of isomers) [Otamixaban, (2R,3R)-2-(3-Carbamimidoyl-benzyl)-3-[4-(1-oxy-pyridin-4-yl)benzoylamino]-butyric acid methyl ester]
efficacy in models of thrombosis (thrombosis [1]): highly efficacious | efficacy in models of thrombosis (thrombosis [2]): highly efficacious | efficacy, safety and tolerability in humans (acute coronary syndrome): efficacious, safe and well tolerated | inhibition of free factor Xa (free factor Xa): inhibited | bleeding rate among subgroups (age, baseline creatinine clearance, body weight) ([4]; human): did not show any increase of the bleeding rate | efficacy in models of thrombosis (thrombosis [5]): highly efficacious | reduction of prothrombin fragments 1+2 versus unfractionated heparin [6]: reduced prothrombin fragments 1+2 significantly more than unfractionated heparin | factor Xa inhibition in patients (factor Xa): dose-dependent, rapid direct factor Xa inhibition | inhibition of factor Xa assembled in the prothrombinase complex [7]: inhibited
